Reference: patent US11357769B2, “Drug combinations for reducing cell viability and/or cell proliferation” (Eisai R&D Management Co., Ltd., priority 2016, dated 2022)

System: Hep3B xenograft
Experiment: Antitumor activity in Hep3B xenograft model of hepatocellular carcinoma
Type: in vivo, mice
Details: 17 days
Protocol: The human hepatocellular cancer cell line Hep3B was cultured in RPMI1640 medium containing 10% fetal bovine serum at 37° C. in a 5% CO2 atmosphere and kept in exponential growth phase. […] When the mean tumor volume (TV) reached approximately 170 mm^3 (10 days after implantation), 56 mice were selected based on their TVs, and were sorted into 7 treatment groups with 8 animals per group. […] Body weights were measured daily and tumor measurements were performed twice weekly.
[formula] where Day X is any day of measurement.
The anti-tumor effects of the treatment, Partial (PR) and complete regression (CR), stable (SD) and progressive (PD) disease were defined by the H3 Xenograft Model Response Criteria (Appendix 4). […] The relative body weight changes were analyzed by two way ANOVA followed by Dunnett's post hoc.

C=CC(=O)Nc1cc(N2CCN(CC)CC2)ccc1Nc1cc(N(C)C(=O)Nc2c(Cl)c(OC)cc(OC)c2Cl)ncn1 [Compound 1, N-(2-((6-(3-(2,6-dichloro-3,5-dimethoxyphenyl)-1-methylureido)pyrimidin-4-yl)amino)-5-(4-ethylpiperazin-1-yl)phenyl)acrylamide] was tested, and the “Tumor Growth Inhibition (TGI)” value (Compound 1 single agent 100 mg/kg PO) was 16% and the “Tumor Growth Inhibition (TGI)” value (Compound 1 single agent 300 mg/kg PO, p<0.05 vs vehicle) was 64%.
